Results as given in paper PMC7310833, “Structural and biochemical characterization of a novel thermophilic Coh01147 protease” (PLoS ONE, 2020).

Molecular target: T1, protease 1147 (Cohnella sp. A01, UniProt A0A5J6KIY6)
T1 construct: full length, 169 residues, no signal peptide, C-terminal His-tag (pET26b(+)), E. coli BL21 (DE3), about 18 kDa on SDS-PAGE; N-terminus from primer MKKVAFL; Ni-NTA
T1 sequence (A0A5J6KIY6 1-169): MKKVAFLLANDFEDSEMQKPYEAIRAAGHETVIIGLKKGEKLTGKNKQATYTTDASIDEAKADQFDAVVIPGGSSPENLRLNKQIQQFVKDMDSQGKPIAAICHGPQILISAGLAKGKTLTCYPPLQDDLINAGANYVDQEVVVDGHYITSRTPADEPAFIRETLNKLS
Assay: casein hydrolysis, TCA-soluble A280
Type: biochemical
Conditions: […] and […] inhibitor; casein substrate; table prints NA, text says completely inhibited; […] C, pH […]

`CC(C)C[C@H](NC(=O)[C@@H]1O[C@H]1C(=O)O)C(=O)NCCCCN=C(N)N` [E-64, Trans-Epoxysuccinyl-L-leucylamido (4-guanidino) butane] was tested, and the “relative activity (%)” value was “completely inhibited by IAM, E-64, and leupeptin, which are the typical cysteine protease inhibitors”.
